# Data published in PubChem BioAssay AID2060615 (Molecular Pharmacology Branch, DTP, NCI, 2025).
# “And” between values parts separate entries of the source, which are not always exact repeats. Equal entries are not always repeated.
# Test system: 496974-208-R-J2-PDC complex spheroids, growth % test/control
# Assay: Anticancer human tumor 496974-208-R-J2-PDC patient-derived pancreatic carcinoma cell line growth inhibition [CLK]
# Details: for viability, T/C: stronger effect = lower value
# Procedure, shortened: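 Patient-derived tumor cells grown as complex spheroids with HUVEC endothelial cells and mesenchymal stem cells, treated with drug combinations. Concentrations descend in half-log steps from near clinical Cmax, or from 10 microM if Cmax unknown.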
# [1] = curve of first compound, second compound 0.0316 µM
# [2] = curve of first compound, second compound 0.1 µM
# [3] = curve of first compound, second compound 0.316 µM
# [4] = curve of first compound, second compound 1 µM
# [5] = curve of first compound, second compound 3.16 µM
# [6] = curve of first compound, second compound 10 µM
# [7] = second compound 0.0316 µM, first compound 0.0316 µM
# [8] = second compound 0.0316 µM, first compound 0.1 µM
# [9] = second compound 0.0316 µM, first compound 0.316 µM
# [10] = second compound 0.0316 µM, first compound 1 µM
# [11] = second compound 0.0316 µM, first compound 3.16 µM
# [12] = second compound 0.0316 µM, first compound 10 µM
# [13] = second compound 0.1 µM, first compound 0.0316 µM
# [14] = second compound 0.1 µM, first compound 0.1 µM
# [15] = second compound 0.1 µM, first compound 0.316 µM
# [16] = second compound 0.1 µM, first compound 1 µM
# [17] = second compound 0.1 µM, first compound 3.16 µM
# [18] = second compound 0.1 µM, first compound 10 µM
# [19] = second compound 0.316 µM, first compound 0.0316 µM
# [20] = second compound 0.316 µM, first compound 0.1 µM
# [21] = second compound 0.316 µM, first compound 0.316 µM
# [22] = second compound 0.316 µM, first compound 1 µM
# [23] = second compound 0.316 µM, first compound 3.16 µM
# [24] = second compound 0.316 µM, first compound 10 µM
# [25] = second compound 1 µM, first compound 0.0316 µM
# [26] = second compound 1 µM, first compound 0.1 µM
# [27] = second compound 1 µM, first compound 0.316 µM
# [28] = second compound 1 µM, first compound 1 µM
# [29] = second compound 1 µM, first compound 3.16 µM
# [30] = second compound 1 µM, first compound 10 µM
# [31] = second compound 3.16 µM, first compound 0.0316 µM
# [32] = second compound 3.16 µM, first compound 0.1 µM
# [33] = second compound 3.16 µM, first compound 0.316 µM
# [34] = second compound 3.16 µM, first compound 1 µM
# [35] = second compound 3.16 µM, first compound 3.16 µM
# [36] = second compound 3.16 µM, first compound 10 µM
# [37] = second compound 10 µM, first compound 0.0316 µM
# [38] = second compound 10 µM, first compound 0.1 µM
# [39] = second compound 10 µM, first compound 0.316 µM
# [40] = second compound 10 µM, first compound 1 µM
# [41] = second compound 10 µM, first compound 3.16 µM
# [42] = second compound 10 µM, first compound 10 µM
# 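Further: spheroids exposed to the drugs for 7 days before readout.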
# 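Wherever viability, T/C is given: 100% = DMSO vehicle control wells.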
structure (smiles),measurement,setting,value
CC(Nc1ccc2c(c1)OCCn1cc(N3C(=O)OCC3C(F)F)nc1-2)C(N)=O (stereo not drawn) + CN1CCN(c2cc(C(=O)Nc3cc4cc(-c5cnn(C)c5)ccc4cn3)ccn2)CC1,IC50,[1],166 nM
same,IC50,[2],101 nM
same,IC50,[3],< 31.6 nM
same,IC50,[4],< 31.6 nM
same,IC50,[5],< 31.6 nM
same,IC50,[6],< 31.6 nM
same,"viability, T/C",[7],86.4%
same,"viability, T/C",[8],60.1%
same,"viability, T/C",[9],37.2%
same,"viability, T/C",[10],22%
same,"viability, T/C",[11],13.6%
same,"viability, T/C",[12],8.34%
same,"viability, T/C",[13],64%
same,"viability, T/C",[14],51.2%
same,"viability, T/C",[15],32.3%
same,"viability, T/C",[16],20.9%
same,"viability, T/C",[17],14.5%
same,"viability, T/C",[18],8.7%
same,"viability, T/C",[19],7.37%
same,"viability, T/C",[20],5.41%
same,"viability, T/C",[21],2.52%
same,"viability, T/C",[22],2.18%
same,"viability, T/C",[23],2.7%
same,"viability, T/C",[24],2.59%
same,"viability, T/C",[25],0.4%
same,"viability, T/C",[26],0.53%
same,"viability, T/C",[27],2.57%
same,"viability, T/C",[28],0.36%
same,"viability, T/C",[29],1.09%
same,"viability, T/C",[30],1.26%
same,"viability, T/C",[31],0.43%
same,"viability, T/C",[32],0.34%
same,"viability, T/C",[33],1.75%
same,"viability, T/C",[34],0.38%
same,"viability, T/C",[35],0.52%
same,"viability, T/C",[36],0.5%
same,"viability, T/C",[37],0.2%
same,"viability, T/C",[38],0.58%
same,"viability, T/C",[39],1.4%
same,"viability, T/C",[40],0.27%
same,"viability, T/C",[41],0.59%
same,"viability, T/C",[42],0.57%
CC1COCCN1c1cc(C2(S(C)(=N)=O)CC2)nc(-c2ccnc3[nH]ccc23)n1 (stereo not drawn) + CN1CCN(c2cc(C(=O)Nc3cc4cc(-c5cnn(C)c5)ccc4cn3)ccn2)CC1,IC50,[1],3820 nM
same,IC50,[2],1930 nM
same,IC50,[3],< 31.6 nM
same,IC50,[4],< 31.6 nM
same,IC50,[5],< 31.6 nM
same,IC50,[6],< 31.6 nM
same,"viability, T/C",[7],107%
same,"viability, T/C",[8],99.8%
same,"viability, T/C",[9],102%
same,"viability, T/C",[10],82.8%
same,"viability, T/C",[11],53.3%
same,"viability, T/C",[12],34.5%
same,"viability, T/C",[13],94.5%
same,"viability, T/C",[14],83.4%
same,"viability, T/C",[15],73.3%
same,"viability, T/C",[16],70.1%
same,"viability, T/C",[17],35.6%
same,"viability, T/C",[18],22.4%
same,"viability, T/C",[19],7.43%
same,"viability, T/C",[20],5.54%
same,"viability, T/C",[21],5.89%
same,"viability, T/C",[22],5.38%
same,"viability, T/C",[23],4.22%
same,"viability, T/C",[24],5.13%
same,"viability, T/C",[25],0.53%
same,"viability, T/C",[26],0.67%
same,"viability, T/C",[27],2.64%
same,"viability, T/C",[28],0.45%
same,"viability, T/C",[29],0.65%
same,"viability, T/C",[30],1.19%
same,"viability, T/C",[31],0.65%
same,"viability, T/C",[32],0.51%
same,"viability, T/C",[33],1.73%
same,"viability, T/C",[34],0.46%
same,"viability, T/C",[35],0.61%
same,"viability, T/C",[36],0.43%
same,"viability, T/C",[37],0.36%
same,"viability, T/C",[38],0.42%
same,"viability, T/C",[39],1.59%
same,"viability, T/C",[40],0.41%
same,"viability, T/C",[41],1.27%
same,"viability, T/C",[42],1.47%
Nc1ccccc1NC(=O)c1ccc(CNC(=O)OCc2cccnc2)cc1,"viability, T/C",compound 0.0316 µM,104% and 112%
same,"viability, T/C",compound 0.1 µM,86.3% and 98.7%
same,"viability, T/C",compound 0.316 µM,85.9% and 86.6%
same,"viability, T/C",compound 1 µM,77.5% and 72.4%
same,"viability, T/C",compound 3.16 µM,74.1% and 77.9%
same,"viability, T/C",compound 10 µM,0.53% and 0.83%
same,IC50,curve of compound,4370 nM and 4160 nM
C=CC(=O)Nc1cc(Nc2nccc(-c3cn(C)c4ccccc34)n2)c(OC)cc1N(C)CCN(C)C + CNC(=O)c1ccc(Nc2nc(OC3CCCC3)c3c(-c4ccc5nc(C)oc5c4)c[nH]c3n2)c(OC)c1,IC50,[1],> 300 nM
same,IC50,[2],> 300 nM
same,IC50,[3],> 300 nM
same,IC50,[4],152 nM
same,IC50,[5],122 nM
same,IC50,[6],75.8 nM
same,"viability, T/C","second compound 0.0316 µM, first compound 0.000949 µM",108%
same,"viability, T/C","second compound 0.0316 µM, first compound 0.003 µM",99.3%
same,"viability, T/C","second compound 0.0316 µM, first compound 0.00949 µM",88%
same,"viability, T/C","second compound 0.0316 µM, first compound 0.03 µM",96.5%
same,"viability, T/C","second compound 0.0316 µM, first compound 0.0949 µM",90.2%
same,"viability, T/C","second compound 0.0316 µM, first compound 0.3 µM",71.7%
same,"viability, T/C","second compound 0.1 µM, first compound 0.000949 µM",80.6%
same,"viability, T/C","second compound 0.1 µM, first compound 0.003 µM",89.5%
same,"viability, T/C","second compound 0.1 µM, first compound 0.00949 µM",67.1%
same,"viability, T/C","second compound 0.1 µM, first compound 0.03 µM",72.8%
same,"viability, T/C","second compound 0.1 µM, first compound 0.0949 µM",70%
same,"viability, T/C","second compound 0.1 µM, first compound 0.3 µM",53.1%
same,"viability, T/C","second compound 0.316 µM, first compound 0.000949 µM",81.1%
same,"viability, T/C","second compound 0.316 µM, first compound 0.003 µM",77.4%
same,"viability, T/C","second compound 0.316 µM, first compound 0.00949 µM",85.2%
same,"viability, T/C","second compound 0.316 µM, first compound 0.03 µM",74.5%
same,"viability, T/C","second compound 0.316 µM, first compound 0.0949 µM",60.4%
same,"viability, T/C","second compound 0.316 µM, first compound 0.3 µM",51.2%
same,"viability, T/C","second compound 1 µM, first compound 0.000949 µM",76.7%
same,"viability, T/C","second compound 1 µM, first compound 0.003 µM",70.2%
same,"viability, T/C","second compound 1 µM, first compound 0.00949 µM",66%
same,"viability, T/C","second compound 1 µM, first compound 0.03 µM",65.1%
same,"viability, T/C","second compound 1 µM, first compound 0.0949 µM",57.2%
same,"viability, T/C","second compound 1 µM, first compound 0.3 µM",40.9%
same,"viability, T/C","second compound 3.16 µM, first compound 0.000949 µM",63.4%
same,"viability, T/C","second compound 3.16 µM, first compound 0.003 µM",64.1%
same,"viability, T/C","second compound 3.16 µM, first compound 0.00949 µM",65.6%
same,"viability, T/C","second compound 3.16 µM, first compound 0.03 µM",57.8%
same,"viability, T/C","second compound 3.16 µM, first compound 0.0949 µM",51.7%
same,"viability, T/C","second compound 3.16 µM, first compound 0.3 µM",41.1%
same,"viability, T/C","second compound 10 µM, first compound 0.000949 µM",60.3%
same,"viability, T/C","second compound 10 µM, first compound 0.003 µM",57.9%
same,"viability, T/C","second compound 10 µM, first compound 0.00949 µM",57.5%
same,"viability, T/C","second compound 10 µM, first compound 0.03 µM",51.3%
same,"viability, T/C","second compound 10 µM, first compound 0.0949 µM",51.4%
same,"viability, T/C","second compound 10 µM, first compound 0.3 µM",30.4%
